Structures can show the parent of a compound that is named as a salt. Where two headings read alike, the source gives them in different places.
Test system: C. albicans
Assay: Broth microdilution assay of synergistic lethality with 4 μg/mL FLC (recovery on drug-free YPD)
Type: cell-based, Candida albicans
[1] = concentration of the compound that is synergistically lethal with 4 μg/mL FLC, C. albicans, recovery on drug-free YPD

SMILES: CN1CCC(=C2c3ccccc3C=Cc3ccccc32)CC1.CN1CCC(=C2c3ccccc3C=Cc3ccccc32)CC1.Cl.Cl.O.O.O
- Synergistic lethal concentrations [1]: 100 µM

SMILES: CC=CC(=O)N(CC)c1ccccc1C (mixture of isomers) [Crotamiton]
- Synergistic lethal concentrations [1]: 100 µM

SMILES: Cl.Cl.OCCN1CCN(CCC=C2c3ccccc3Sc3ccc(C(F)(F)F)cc32)CC1 (mixture of isomers) [Flupentixol dihydrochloride]
- Synergistic lethal concentrations [1]: 100 µM

SMILES: COC(=O)C1=C(C)NC(C)=C(C(=O)O[C@@H]2CCCN(Cc3ccccc3)C2)[C@@H]1c1cccc([N+](=O)[O-])c1.Cl (racemic) [Benidipine (hydrochloride)]
- Synergistic lethal concentrations [1]: 100 µM

SMILES: O=C(c1ccc(F)c(F)c1Nc1ccc(I)cc1F)N1CC(O)([C@@H]2CCCCN2)C1 (racemic) [Cobimetinib (racemate)]
- Synergistic lethal concentrations [1]: 25 µM

SMILES: Nc1c2ccccc2nc2ccccc12 [9-Aminoacridine]
- Synergistic lethal concentrations [1]: 100 µM

SMILES: CN(C)C/C=C/C(=O)Nc1cc2c(Nc3ccc(F)c(Cl)c3)ncnc2cc1O[C@H]1CCOC1.O=C(O)/C=C\C(=O)O.O=C(O)/C=C\C(=O)O [Afatinib (dimaleate)]
- Synergistic lethal concentrations [1]: 100 µM

SMILES: CN(C)C/C=C/C(=O)Nc1cc2c(Nc3ccc(F)c(Cl)c3)ncnc2cc1O[C@H]1CCOC1 [Afatinib]
- Synergistic lethal concentrations [1]: 100 µM

SMILES: C=CC(=O)Nc1cc(Nc2nccc(-c3cn(C4CC4)c4ccccc34)n2)c(OC)cc1N(C)CCN(C)C.Cl [Almonertinib (hydrochloride)]
- Synergistic lethal concentrations [1]: 12.5 µM

SMILES: C=CC(=O)Nc1cc(Nc2nccc(-c3cn(C4CC4)c4ccccc34)n2)c(OC)cc1N(C)CCN(C)C [Almonertinib]
- Synergistic lethal concentrations [1]: 25 µM

SMILES: CN(C)CCC=C1c2ccccc2CCc2ccccc21.Cl [Amitriptyline (hydrochloride)]
- Synergistic lethal concentrations [1]: 100 µM

SMILES: CCOC(=O)C1=C(COCCN)NC(C)=C(C(=O)OC)C1c1ccccc1Cl.O=C(O)/C=C\C(=O)O (stereo not shown) [Amlodipine (maleate)]
- Synergistic lethal concentrations [1]: 100 µM

SMILES: CCOC(=O)C1=C(COCCN)NC(C)=C(C(=O)OC)C1c1ccccc1Cl (stereo not shown) [Amlodipine]
- Synergistic lethal concentrations [1]: 100 µM

SMILES: CCC(C)(C)c1ccc(CC(C)CN2C[C@@H](C)O[C@@H](C)C2)cc1.Cl (stereo partly shown) [Amorolfine (hydrochloride)]
- Synergistic lethal concentrations [1]: 100 µM

SMILES: Clc1ccc2c(c1)C(N1CCNCC1)=Nc1ccccc1O2 [Amoxapine]
- Synergistic lethal concentrations [1]: 100 µM

SMILES: CN(C)N(C)C(=O)[C@@]1(Cc2ccccc2)CCCN(C(=O)[C@@H](Cc2c[nH]c3ccccc23)NC(=O)C(C)(C)N)C1.Cl [Anamorelin (hydrochloride)]
- Synergistic lethal concentrations [1]: 100 µM

SMILES: CNCC[C@@H](Oc1ccccc1C)c1ccccc1.Cl [Atomoxetine (hydrochloride)]
- Synergistic lethal concentrations [1]: 100 µM

SMILES: CN1[C@@H]2CC[C@H]1C[C@@H](OC(c1ccccc1)c1ccccc1)C2.CS(=O)(=O)O [Benztropine (mesylate)]
- Synergistic lethal concentrations [1]: 100 µM

SMILES: CCN1CCN(c2cc(-c3ccc(F)cc3)c3c(n2)CCCCCC3)CC1 [Blonanserin]
- Synergistic lethal concentrations [1]: 50 µM

SMILES: COc1cc(Nc2c(C#N)cnc3cc(OCCCN4CCN(C)CC4)c(OC)cc23)c(Cl)cc1Cl [Bosutinib]
- Synergistic lethal concentrations [1]: 25 µM

SMILES: CCCCOc1ccc(CC(=O)NO)cc1 [Bufexamac]
- Synergistic lethal concentrations [1]: 100 µM

SMILES: Cc1ccc([C@@H]2O[C@H](CO)[C@@H](O)[C@H](O)[C@H]2O)cc1Cc1ccc(-c2ccc(F)cc2)s1.O [Canagliflozin (hemihydrate)]
- Synergistic lethal concentrations [1]: 100 µM

SMILES: Cc1ccc([C@@H]2O[C@H](CO)[C@@H](O)[C@H](O)[C@H]2O)cc1Cc1ccc(-c2ccc(F)cc2)s1 [Canagliflozin]
- Synergistic lethal concentrations [1]: 100 µM

SMILES: C[N+](C)(CC(=O)Nc1ccccc1)CC(=O)Nc1ccccc1.[Cl-] [Carcainium (chloride)]
- Synergistic lethal concentrations [1]: 100 µM

SMILES: COc1ccccc1OCCNCC(O)COc1cccc2[nH]c3ccccc3c12 (stereo not shown) [Carvedilol]
- Synergistic lethal concentrations [1]: 100 µM

SMILES: Cc1cc(Nc2ncc(Cl)c(Nc3ccccc3S(=O)(=O)C(C)C)n2)c(OC(C)C)cc1C1CCNCC1.Cl.Cl [Ceritinib dihydrochloride]
- Synergistic lethal concentrations [1]: 12.5 µM

SMILES: Cc1cc(Nc2ncc(Cl)c(Nc3ccccc3S(=O)(=O)C(C)C)n2)c(OC(C)C)cc1C1CCNCC1 [Ceritinib]
- Synergistic lethal concentrations [1]: 12.5 µM

SMILES: N=C(NCCCCCCNC(=N)NC(=N)Nc1ccc(Cl)cc1)NC(=N)Nc1ccc(Cl)cc1.O=C(O)[C@H](O)[C@@H](O)[C@H](O)[C@H](O)CO.O=C(O)[C@H](O)[C@@H](O)[C@H](O)[C@H](O)CO [Chlorhexidine (digluconate)]
- Synergistic lethal concentrations [1]: 6.25 µM

SMILES: CN(C)CC/C=C1/c2ccccc2Sc2ccc(Cl)cc21 [Chlorprothixene]
- Synergistic lethal concentrations [1]: 100 µM

SMILES: C[C@@H](NCCCc1cccc(C(F)(F)F)c1)c1cccc2ccccc12.Cl [Cinacalcet (hydrochloride)]
- Synergistic lethal concentrations [1]: 100 µM

SMILES: C[C@@H](NCCCc1cccc(C(F)(F)F)c1)c1cccc2ccccc12 [Cinacalcet]
- Synergistic lethal concentrations [1]: 100 µM

SMILES: Oc1c(I)cc(Cl)c2cccnc12 [Clioquinol]
- Synergistic lethal concentrations [1]: 12.5 µM

SMILES: CN1CCN(C2=Nc3cc(Cl)ccc3Nc3ccccc32)CC1 [Clozapine]
- Synergistic lethal concentrations [1]: 100 µM

SMILES: CC(C)c1nc(CN(C)C(=O)N[C@@H](CCN2CCOCC2)C(=O)N[C@H](CC[C@H](Cc2ccccc2)NC(=O)OCc2cncs2)Cc2ccccc2)cs1 [Cobicistat]
- Synergistic lethal concentrations [1]: 100 µM

SMILES: O=C(O)/C=C/C(=O)O.O=C(c1ccc(F)c(F)c1Nc1ccc(I)cc1F)N1CC(O)([C@@H]2CCCCN2)C1.O=C(c1ccc(F)c(F)c1Nc1ccc(I)cc1F)N1CC(O)([C@@H]2CCCCN2)C1 [Cobimetinib (hemifumarate)]
- Synergistic lethal concentrations [1]: 50 µM

SMILES: O=C(c1ccc(F)c(F)c1Nc1ccc(I)cc1F)N1CC(O)([C@@H]2CCCCN2)C1 [Cobimetinib]
- Synergistic lethal concentrations [1]: 50 µM

SMILES: Cc1nc2c([nH]1)-c1ccccc1N(C(=O)c1ccc(NC(=O)c3ccccc3-c3ccccc3)cc1)CC2.Cl [Conivaptan (hydrochloride)]
- Synergistic lethal concentrations [1]: 100 µM

SMILES: CC1CC(OC(=O)C(O)c2ccccc2)CC(C)(C)C1 (stereo not shown) [Cyclandelate]
- Synergistic lethal concentrations [1]: 100 µM

SMILES: CN(C)CCC=C1c2ccccc2C=Cc2ccccc21.Cl [Cyclobenzaprine (hydrochloride)]
- Synergistic lethal concentrations [1]: 100 µM

SMILES: CN1CCC(=C2c3ccccc3C=Cc3ccccc32)CC1.Cl [Cyproheptadine (hydrochloride)]
- Synergistic lethal concentrations [1]: 50 µM

SMILES: CCCCCCOC(=O)NC(=N)c1ccc(NCc2nc3cc(C(=O)N(CCC(=O)OCC)c4ccccn4)ccc3n2C)cc1.CS(=O)(=O)O [Dabigatran etexilate (mesylate)]
- Synergistic lethal concentrations [1]: 50 µM

SMILES: CCCCCCOC(=O)N=C(N)c1ccc(NCc2nc3cc(C(=O)N(CCC(=O)OCC)c4ccccn4)ccc3n2C)cc1 [Dabigatran etexilate]
- Synergistic lethal concentrations [1]: 6.25 µM

SMILES: COc1cc2ncnc(Nc3ccc(F)c(Cl)c3)c2cc1NC(=O)/C=C/CN1CCCCC1 [Dacomitinib]
- Synergistic lethal concentrations [1]: 100 µM

SMILES: CN(C)[C@@H](CCOc1cccc2ccccc12)c1ccccc1.Cl [Dapoxetine (hydrochloride)]
- Synergistic lethal concentrations [1]: 50 µM

SMILES: Br.NC(=O)C(c1ccccc1)(c1ccccc1)[C@@H]1CCN(CCc2ccc3c(c2)CCO3)C1 [Darifenacin (hydrobromide)]
- Synergistic lethal concentrations: 100 µM

SMILES: CNCCCN1c2ccccc2CCc2ccccc21 [Desipramine hydrochloride]
- Synergistic lethal concentrations [1]: 100 µM

SMILES: O=C(O)c1cc(-c2ccc(F)cc2F)ccc1O [Diflunisal]
- Synergistic lethal concentrations [1]: 100 µM

SMILES: CC(C)[C@@]1(NC(=O)[C@@H]2C[C@@H]3c4cccc5[nH]cc(c45)C[C@H]3N(C)C2)O[C@@]2(O)[C@@H]3CCCN3C(=O)[C@H](Cc3ccccc3)N2C1=O.CS(=O)(=O)O [Dihydroergocristine (mesylate)]
- Synergistic lethal concentrations [1]: 100 µM

SMILES: Cc1ccc2c(c1)[C@]13CCCC[C@@H]1[C@H](C2)N(C)CC3.O=P(O)(O)O [Dimemorfan (phosphate)]
- Synergistic lethal concentrations [1]: 100 µM

SMILES: OCCN(CCO)c1nc(N2CCCCC2)c2nc(N(CCO)CCO)nc(N3CCCCC3)c2n1 [Dipyridamole]
- Synergistic lethal concentrations [1]: 100 µM

SMILES: CCN(CC)C(=S)SSC(=S)N(CC)CC [Disulfiram]
- Synergistic lethal concentrations [1]: 100 µM

SMILES: CCCCC(CC)COC(=O)CC(C(=O)OCC(CC)CCCC)S(=O)(=O)[O-].[Na+] (stereo not shown) [Docusate (Sodium)]
- Synergistic lethal concentrations [1]: 100 µM

SMILES: CCCCCCCCCCCC[N+](C)(C)CCOc1ccccc1.[Br-] [Domiphen (bromide)]
- Synergistic lethal concentrations [1]: 0.1953 µM

SMILES: O=c1[nH]c2ccccc2n1CCCN1CCC(n2c(=O)[nH]c3cc(Cl)ccc32)CC1 [Domperidone]
- Synergistic lethal concentrations [1]: 100 µM

SMILES: CCCCc1oc2ccc(NS(C)(=O)=O)cc2c1C(=O)c1ccc(OCCCN(CCCC)CCCC)cc1.Cl [Dronedarone (Hydrochloride)]
- Synergistic lethal concentrations [1]: 100 µM

SMILES: CCCCc1oc2ccc(NS(C)(=O)=O)cc2c1C(=O)c1ccc(OCCCN(CCCC)CCCC)cc1 [Dronedarone]
- Synergistic lethal concentrations [1]: 100 µM

SMILES: O=C(CCCN1CC=C(n2c(=O)[nH]c3ccccc32)CC1)c1ccc(F)cc1 [Droperidol]
- Synergistic lethal concentrations [1]: 100 µM

SMILES: CNCC[C@H](Oc1cccc2ccccc12)c1cccs1.Cl [Duloxetine (hydrochloride)]
- Synergistic lethal concentrations: 50 µM

SMILES: CN1CCN(c2ccc(C(=O)Nc3n[nH]c4ccc(Cc5cc(F)cc(F)c5)cc34)c(NC3CCOCC3)c2)CC1 [Entrectinib]
- Synergistic lethal concentrations [1]: 50 µM

SMILES: CC(O)C(=O)O.CCOc1ccc2nc3cc(N)ccc3c(N)c2c1.O [Ethacridine (lactate monohydrate)]
- Synergistic lethal concentrations [1]: 100 µM

SMILES: CCOC(=O)c1cncn1[C@H](C)c1ccccc1.Cl [Etomidate (hydrochloride)]
- Synergistic lethal concentrations [1]: 100 µM

SMILES: C=CCc1ccc(O)c(OC)c1 [Eugenol]
- Synergistic lethal concentrations [1]: 100 µM

SMILES: Cc1cnc(Nc2ccc(OCCN3CCCC3)cc2)nc1Nc1cccc(S(=O)(=O)NC(C)(C)C)c1 [Fedratinib]
- Synergistic lethal concentrations [1]: 100 µM

SMILES: CCOC(=O)C1=C(C)NC(C)=C(C(=O)OC)C1c1cccc(Cl)c1Cl (stereo not shown) [Felodipine]
- Synergistic lethal concentrations [1]: 100 µM
